Assay: Inclusion of poorly water-soluble substance (curcumin): absorbance of supernatant at 405 nm
Assay type: physicochemical
Conditions: 0.002 mol/L monomer glucose; curcumin in acetone, 1 vol. % acetone; 3 hours, 25° C.; after centrifugation
Text: In order to examine the change in characteristics of centrifugally regenerated β-1,3-1,6-glucan in association with powder formation, the envelopment and solubilizing capacity of the centrifugally regenerated β-1,3-1,6-glucan with respect to poorly water-soluble substances were compared.
β-1,3-1,6-glucan (lyophilized) derived from Aureobasidium pullulans was used as the centrifugally regenerated β-1,3-1,6-glucan powder, and curcumin (available from Tokyo Chemical Industry Co., Ltd., catalog number: 00435) was used as the poorly water-soluble substance.
The centrifugally regenerated β-1,3-1,6-glucan powder was dissolved in distilled water at a concentration of 1.0% by mass, and the glucose concentration was calculated through the phenol-sulfuric acid method, after which the solution was diluted and used. […]
Each centrifugally regenerated β-1,3-1,6-glucan solution having a monomer glucose concentration adjusted to 0.002 mol/L was prepared at an amount of 1 mL each, and an acetone solution of curcumin adjusted to a concentration of 0.05 mol/L was added such that the final concentration of acetone was 1 vol. %. […] Centrifugation (KUBOTA3740 (available from Kubota Manufacturing Co., Ltd.), 14000 G, 5 minutes) was carried out, the insoluble matter was removed, and the absorbance of the supernatant at a wavelength of 405 nm was compared. […]

## COc1cc(/C=C/C(=O)CC(=O)/C=C/c2ccc(O)c(OC)c2)ccc1O [curcumin]
  absorbance (wavelength of 405 nm) originating from the curcumin in the supernatant: 0.045

Reference: US11384159B2, “B-1,3-1,6-glucan powder, glucan-containing composition, method for producing B-1,3-1,6-glucan powder, inclusion complex, method for producing inclusion complex, and method for recovering guest molecule” (MITSUBISHI GAS CHEMICAL COMPANY, INC., priority 2017, dated 2022)
